Structures are written as SMILES.

This is an account of results in US12673106B2, “Modulators of nuclear receptor subfamily 4 group A member 1 (NR4A1) and uses thereof” (University of Florida Research Foundation, Incorporated, priority 2020, dated 2026).

Series [1] can be described thus: Pharmacokinetics in mouse, plasma by LC/MS/MS. The format is in vivo. How it is done:
Plasma concentrations of NR-V04 were determined by LC/MS/MS (Instrument: AB Sciex 6500 (#15)) using service from BioDuro Inc, at different time points after mice receiving iv injection of 2 mg/kg or ip injection of 20 mg/kg. PK values for iv (2 mg/kg, FIG. 17A) or ip (20 mg/kg, FIG. 17B) are shown and summarized (FIG. 17C).
PK was determined for NR-V04 for iv. injection of 2 mg/kg or ip injection of 20 mg/kg (FIG. 17).

Series [2] deals with MCF7-Tam cells. As to the kind of experiment: MTS viability assay, MCF7-Tam cells. In kind it is cell-based. To be noted: relative to celastrol or NR-V04-NT. The text has this:
(§1) NR4A1-Ps selectively kill breast cancer cells. Since NR-V04 is very efficient in NR4A1 degradation, a negative control, NR-V04-NT, was synthesized.

The test system of series [3] is MCF10A. The series can be described thus: MTS viability assay, MCF10A normal breast epithelial cells. The settings on record: relative to celastrol. In kind it is cell-based, human.
Excerpt: as §1
In general terms: Formazan colour is commonly taken as a measure of viable cells.

Series [4] has as its system B16F10 melanoma. The series can be described thus: B16F10 melanoma model in NSG mice. In kind it is in vivo, mouse. The settings on record: 1.8 mg/kg twice weekly for 3 weeks. The text has this: FIG. 10A-10C. […] Tumor growth were monitored via palpation. N=7 mice/group. FIG. 10A and FIG. 10B are the same experiment, but FIG. 10B includes only control vehicle and NR-V04 treated groups in FIG. 10B.

The subject of series [5] is RENCA cells. The series can be described thus: RENCA renal cancer model in Balb/C mice. In kind it is in vivo, mouse. As to the method: RENCA cells (10,000 per injection) were injected into s.c. of 8-week Balb/C mice, following with vehicle or NR-V04 treatment i.p. at 8 mg/kg weekly, starting at day 15 after tumor cell injection. Tumor volume was recorded.
FIG. 13A-FIG. 13C. Influence of NR-V04 treatment on TI-Tregs from (FIG. 13A) B16F10 melanoma, 1.8 mg/kg twice weekly for 3 weeks; (FIG. 13B) RENCA renal cancer model, 20 mg/kg once a week for 3 weeks; (FIG. 13C-13D) Py8119 breast cancer model, 8 mg/kg once a week for 3 weeks; with FIG. 13C showing the ratios between Treg/Tconv and FIG. 13D showing Treg/CD8+ T cell ratios.
Some of the above tumor models will be included, initially using immune responsive tumors including RENCA and MC38 model. […] Tumor volumes will be determined twice weekly by a caliper and calculated as length×width^2×0.5. Animal will be terminated once the largest tumors reach 2 cm in diameter per IACUC protocol (size is justified to determine lung metastasis). • The parameters include: • Primary tumors—Tumors will be cut into pieces and used for: a) immunohistochemical (IHC) staining (embedding in OCT compound and freezing). […]

The test system of series [6] is T47D cells. As to the kind of experiment: MTS viability assay, T47D cells. To be noted: relative to celastrol or NR-V04-NT. The format is cell-based.
Excerpt: as §1

The subject of series [7] is OT-1 CD8 T cells. The series can be described thus: OVA peptide-induced exhaustion of OT-1 CD8 T cells, flow cytometry. The settings on record: 1 μM. The format is cell-based, mouse. As to the method:
Splenic CD8+ T cells were purified from OT-1 transgenic mice, treated with 10 ng/ml of OVA peptides for 5 days, following with NR-V04 treatment at 250 nM, 500 nM or 1 μM. CD39+, granzyme B+(P<0.0001), Lag3+ or PD-1+CD8 T cells (P<0.05) were quantitated using flow cytometry.
To induce antigen specific exhaustion of CD8^+ T cells, we purified CD8^+ T cells from OT-1 mice that expresses T cell receptor targeting OVA antigen. We treated these OT-1 CD8 T cells with OVA peptide for 5 days to induce their exhaustion, following with NR-V04 treatment with various concentrations.
(A flow cytometer gives signals particle by particle.)

Regarding `CC1=C(O)C(=O)C=C2C1=CC=C1[C@@]2(C)CC[C@@]2(C)[C@@H]3C[C@](C)(C(=O)NCCOCCOCCOCCOCC(=O)N[C@H](C(=O)N4C[C@H](O)C[C@H]4C(=O)N[C@@H](C)c4ccc(-c5scnc5C)cc4)C(C)(C)C)CC[C@]3(C)CC[C@]12C` [NR-V04], in series [1] (ip injection 20 mg/kg), the average half-life was 8.58 h. In series [1] (iv injection 2 mg/kg), this molecule yielded an average half-life of 5.36 h. Besides, in series [2], the “cell killing (% viability)” value is “more robust killing relative to celastrol or NR-V04-NT”. In addition, the “toxicity to normal cells (% viability)” value in series [3] was “less toxic”. Also, the tumor suppressing effect entry in series [4] is “this effect is diminished”. In addition, in series [5] (8 mg/kg i.p. weekly from day 15), the tumor volume result is reported as “significant reduction”. In series [5] (20 mg/kg once a week for 3 weeks), the TI-Tregs result is “decreased TI-Tregs”. Further, the “cell killing (% viability)” value in series [6] is on record as “more robust killing relative to celastrol or NR-V04-NT”. For the same molecule, in series [7], the “granzyme B+ active CD8 T cells” value is “increase”, the “percent of Lag3+ exhausted CD8 T cells” value is given as “significantly reduced” and the “percent of PD-1+ exhausted CD8 T cells” value is on record as “significantly reduced”.
